The numbers were not newly measured in patent US20140023728A1, “Iodine Liquid Soap, Dispenser and Method” (priority 2012, published 2014), which cites them from elsewhere.

Each structure is given as a SMILES string. Where two headings read alike, the source gives them in different places.

With `II` [Elemental iodine, iodine], the “volume of water in which one gram dissolves” value (one gram in water at 20 degrees Celsius) was 3450 mL and the “volume of water in which one gram dissolves” value (one gram in water at 50 degrees Celsius) is 1280 mL.
